Experiment [1] addresses T1, ATP-binding cassette sub-family C member 9 (Rattus norvegicus, UniProt Q63563). Put plainly: Binding affinity to the sulfonylurea receptor 2A (SUR2A) in purified membranes of rat-heart myocytes.
Experiment [2] concerns the target T1, ATP-binding cassette sub-family C member 9. Put plainly: Binding affinity towards Sulfonylurea receptor 2B (SUR2B) in cultured rat aortic smooth muscle cells (SMC).

T1 sequence (Q63563 whole entry): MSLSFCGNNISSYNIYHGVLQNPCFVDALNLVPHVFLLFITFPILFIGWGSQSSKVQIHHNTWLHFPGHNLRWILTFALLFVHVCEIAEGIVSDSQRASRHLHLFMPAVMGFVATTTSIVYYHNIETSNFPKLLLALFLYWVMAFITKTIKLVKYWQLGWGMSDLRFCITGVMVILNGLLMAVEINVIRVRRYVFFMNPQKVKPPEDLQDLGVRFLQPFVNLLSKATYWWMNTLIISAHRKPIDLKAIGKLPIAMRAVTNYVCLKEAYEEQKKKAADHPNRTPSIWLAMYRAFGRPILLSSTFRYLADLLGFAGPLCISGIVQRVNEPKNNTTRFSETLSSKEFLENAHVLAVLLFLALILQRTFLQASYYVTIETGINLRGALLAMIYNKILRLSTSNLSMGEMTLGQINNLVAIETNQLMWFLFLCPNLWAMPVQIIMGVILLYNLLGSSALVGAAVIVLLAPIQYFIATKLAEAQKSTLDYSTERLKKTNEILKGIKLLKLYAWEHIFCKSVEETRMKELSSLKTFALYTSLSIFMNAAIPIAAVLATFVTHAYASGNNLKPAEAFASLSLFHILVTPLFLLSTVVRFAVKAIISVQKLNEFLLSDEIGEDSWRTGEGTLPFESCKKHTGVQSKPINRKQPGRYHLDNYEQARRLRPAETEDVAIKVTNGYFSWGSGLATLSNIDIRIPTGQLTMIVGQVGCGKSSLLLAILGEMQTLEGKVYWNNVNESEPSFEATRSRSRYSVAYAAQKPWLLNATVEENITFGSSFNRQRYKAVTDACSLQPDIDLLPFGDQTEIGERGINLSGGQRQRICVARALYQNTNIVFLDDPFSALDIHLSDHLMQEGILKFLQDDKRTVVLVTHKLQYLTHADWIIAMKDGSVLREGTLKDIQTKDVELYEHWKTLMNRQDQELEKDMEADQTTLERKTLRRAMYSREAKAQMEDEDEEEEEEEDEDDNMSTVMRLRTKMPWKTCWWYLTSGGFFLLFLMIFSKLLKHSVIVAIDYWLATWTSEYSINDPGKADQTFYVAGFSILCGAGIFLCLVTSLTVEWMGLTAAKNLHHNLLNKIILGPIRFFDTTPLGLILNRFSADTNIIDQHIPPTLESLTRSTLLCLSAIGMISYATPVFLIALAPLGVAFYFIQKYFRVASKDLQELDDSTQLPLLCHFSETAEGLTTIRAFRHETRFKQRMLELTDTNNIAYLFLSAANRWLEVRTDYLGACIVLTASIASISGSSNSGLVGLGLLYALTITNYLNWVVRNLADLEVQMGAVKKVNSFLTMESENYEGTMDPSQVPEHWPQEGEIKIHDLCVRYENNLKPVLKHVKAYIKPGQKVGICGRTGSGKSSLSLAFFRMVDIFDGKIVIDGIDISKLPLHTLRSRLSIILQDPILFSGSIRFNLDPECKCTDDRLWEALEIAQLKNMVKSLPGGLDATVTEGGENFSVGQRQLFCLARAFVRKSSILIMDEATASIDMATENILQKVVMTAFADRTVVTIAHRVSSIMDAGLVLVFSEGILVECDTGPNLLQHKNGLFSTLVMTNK

Turning to `CN(c1ccccc1)S(=O)(=O)c1ccc2c(c1)C(n1ccccc1=O)=CC(C)(C)O2`, the Kd (as a rule, the free concentration of one partner at which half of the binding sites on the other are occupied at equilibrium, for simple one-to-one binding) in experiment [1] was determined as 20 nM; in experiment [2], 13 nM.

`COc1ccc(NS(=O)(=O)c2ccc3c(c2)C(n2ccccc2=O)=CC(C)(C)O3)cc1`: the results for the Kd in experiment [1] and in experiment [2] were 537 nM and 245 nM, respectively. The like results for `[2H]c1c([2H])c([2H])c(NS(=O)(=O)c2ccc3c(c2)C(n2ccccc2=O)=CC(C)(C)O3)c([2H])c1[2H]` were, in that order, 19 nM and 7.4 nM.

As for `CC1(C)C=C(n2ccccc2=O)c2cc(S(=O)(=O)Oc3ccccc3)ccc2O1`, the Kd in experiment [1] came to 17 nM; in experiment [2] it was 2.8 nM.

Consider `CC1(C)C=C(n2ccccc2=O)c2cc(S(=O)(=O)Nc3ccc(Br)cc3)ccc2O1`, for which the values for the Kd in experiment [1] and in experiment [2] were 1700 nM and 224 nM, respectively. The like results for `CCNS(=O)(=O)c1ccc2c(c1)C(n1ccccc1=O)=CC(C)(C)O2` were, in that order, 200 nM and 100 nM. `CC1(C)C=C(n2ccccc2=O)c2cc(S(=O)(=O)N=[N+]=[N-])ccc2O1`: the Kd in experiment [1] stood at 15 nM. `CC1(C)C=C(n2ccccc2=O)c2cc(S(=O)(=O)N3CCOCC3)ccc2O1`: the figures for the Kd in experiment [1] and in experiment [2] were 363 nM and 186 nM, respectively. As to `CC1(C)C=C(n2ccccc2=O)c2cc(S(=O)(=O)Nc3ccccc3)ccc2O1`, the Kd in experiment [1] is 15 nM; in experiment [2], 8.9 nM. In experiment [1], `CC1(C)C=C(n2ccccc2=O)c2cc(S(=O)(=O)NC(=O)NC3CCCCC3)ccc2O1` gave a Kd of 5620 nM. In other words, the single-digit micromolar range. With `CC1(C)C=C(n2ccccc2=O)c2cc(S(=O)(=O)Nc3ccc([N+](=O)[O-])cc3)ccc2O1`, the Kd amounted to 4470 nM in experiment [1] and 1590 nM in experiment [2]. The like results for `CC1(C)Oc2ccc(S(=O)(=O)c3ccccc3)cc2[C@@H](N2CCCC2=O)[C@@H]1O` [Rilmakalim] were, in that order, 27 nM and 7.1 nM. The like results for `CCN(CC)S(=O)(=O)c1ccc2c(c1)C(n1ccccc1=O)=CC(C)(C)O2` were, in that order, 355 nM and 115 nM.

For the molecule `CC1(C)C=C(n2ccccc2=O)c2cc(S(=O)(=O)Nc3ccccc3Br)ccc2O1`, the Kd in experiment [1] was 138 nM; in experiment [2] it was 23 nM. Take `CC1(C)C=C(n2ccccc2=O)c2cc(S(=O)(=O)NCCO)ccc2O1`: the dissociation constant (Kd) was 692 nM in experiment [1] and 457 nM in experiment [2]. Regarding `CC1(C)C=C(n2ccccc2=O)c2cc(S(=O)(=O)Nc3ccccc3F)ccc2O1`, the Kd was determined as 23 nM in experiment [1] and 11 nM in experiment [2].

Regarding `CC1(C)C=C(n2ccccc2=O)c2cc(C#N)ccc2O1` [Bimakalim], the results for the Kd in experiment [1] and in experiment [2] were 56 nM and 10 nM, respectively. For `CC1(C)C=C(n2ccccc2=O)c2cc(S(=O)(=O)NCc3ccccc3)ccc2O1` the same measures were 5250 nM and 1000 nM.

As to `CC1(C)C=C(n2ccccc2=O)c2cc(S(=O)(=O)c3ccccc3)ccc2O1`, the Kd in experiment [1] worked out at 138 nM; in experiment [2] it was 65 nM.

Consider `CC1(C)C=C(n2ccccc2=O)c2cc(S(=O)(=O)NC3CCCC3)ccc2O1`, for which the Kd in experiment [1] is 1410 nM; in experiment [2], 537 nM.

Turning to `CC1(C)C=C(n2ccccc2=O)c2cc(S(=O)(=O)NC(=O)Nc3ccccc3)ccc2O1`, the Kd in experiment [1] stood at 2820 nM. Regarding `CNS(=O)(=O)c1ccc2c(c1)C(n1ccccc1=O)=CC(C)(C)O2`, the equilibrium dissociation constant (Kd) was found to be 66 nM in experiment [1] and 55 nM in experiment [2].

Regarding `CC1(C)C=C(n2ccccc2=O)c2cc(S(N)(=O)=O)ccc2O1`, the Kd in experiment [1] came to 316 nM; in experiment [2] it was 115 nM. For `CC1(C)C=C(n2ccccc2=O)c2cc(S(=O)(=O)F)ccc2O1` the same measures were 15 nM and 9.8 nM. For `CN(C)S(=O)(=O)c1ccc2c(c1)C(n1ccccc1=O)=CC(C)(C)O2` the same measures were 123 nM and 63 nM. The like results for `CC1(C)C=C(n2ccccc2=O)c2cc(S(=O)(=O)Nc3ccc(C#N)cc3)ccc2O1` were, in that order, 3160 nM and 759 nM. In the case of `CC(C)NS(=O)(=O)c1ccc2c(c1)C(n1ccccc1=O)=CC(C)(C)O2`, the figures for the Kd in experiment [1] and in experiment [2] were 6610 nM and 8320 nM, respectively.

Source of the values: BindingDB's records for doi:10.1021/jm010999g (2002).
